Measured values as given in patent publication US10399965B2 (INNOVATIVE PHARMACOLOGY RESEARCH OOO (IPHAR), priority 2016, dated 2019).

What was measured:
outbred male CD-1 mice = assay: Acute toxicity in mice, single oral administration; settings: male, CD-1, mouse, in vivo
Protocol: (§1) Assessment of acute toxicity of the disclosed compound was performed using outbred male CD-1 mice with SPF status. The test compound was administered in 62.5 mg/kg, 125 mg/kg, 250 mg/kg, 500 mg/kg, 1000 mg/kg, 2000 mg/kg and 5000 mg/kg doses (5 animals per group) in 0.5 ml volume once orally as a suspension in 0.5% aqueous solution of carboxymethyl cellulose.

[1] = Acute toxicity in mice, single oral administration; settings: CD-1, mouse, in vivo, oral; per os, male mice, single dose
Protocol: as §1

[2] = target: T1, Recombinant human tyrosyl-DNA-phosphodiesterase 1 (Tdp1) (Homo sapiens, UniProt Q9NUW8); assay: Tdp1 inhibition, removal of BHQ1 quencher from 3'-end of FAM-labelled oligonucleotide (fluorescence); assay type: biochemical; settings: 1.3 nM Tdp1, 50 nM oligonucleotide, pH 8.0; read-out: IC50 (concentration of an inhibitor that reduces an enzyme's activity by half) towards Tdp1
T1 construct: made in house; host or cells: Escherichia coli
Source text: Recombinant human tyrosyl-DNA-phosphodiesterase 1 (EC number 3.1.4.) was expressed in an Escherichia coli system (plasmid pET 16B-Tdp1 provided by Dr. K. W. Caldecott, Sussex University, UK) and isolated as described in [2, 32]. The reaction of removing Black Hole Quencher 1 (BHQ1) from 3′-end of an oligonucleotide, catalyzed by Tdp1, is used as the test system for determining the inhibitory properties of the test compounds. At the 5′-end of an oligonucleotide there is (5,6)-FAM, a fluorophore whose fluorescence intensity increases after removing the quencher. POLARstar OPTIMA fluorimeter (BMG LABTECH) was used to measure fluorescence.
The reaction mixtures (volume 200 μl) contained the buffer (50 mM Tris-HCl, pH 8.0; 50 mM NaCl; 7 mM mercaptoethanol), 50 nM oligonucleotide and different concentrations of the inhibitor. The reaction was initiated by adding Tdp1 to a final concentration of 1.3 nM. The measurements were performed in linear range of dependence of reaction rate to time (up to 8 minutes) each 55 seconds. The action of the disclosed compounds was assessed by IC50 value (concentration of an inhibitor that reduces an enzyme's activity by half). IC50 value was calculated using MARS Data Analisys 2.0 software (BMG LABTECH).
A typical curve of relation of inhibitor concentration to the rate of reaction, catalyzed by Tdp1, is presented at FIG. 2.

T1 sequence (Q9NUW8 whole entry): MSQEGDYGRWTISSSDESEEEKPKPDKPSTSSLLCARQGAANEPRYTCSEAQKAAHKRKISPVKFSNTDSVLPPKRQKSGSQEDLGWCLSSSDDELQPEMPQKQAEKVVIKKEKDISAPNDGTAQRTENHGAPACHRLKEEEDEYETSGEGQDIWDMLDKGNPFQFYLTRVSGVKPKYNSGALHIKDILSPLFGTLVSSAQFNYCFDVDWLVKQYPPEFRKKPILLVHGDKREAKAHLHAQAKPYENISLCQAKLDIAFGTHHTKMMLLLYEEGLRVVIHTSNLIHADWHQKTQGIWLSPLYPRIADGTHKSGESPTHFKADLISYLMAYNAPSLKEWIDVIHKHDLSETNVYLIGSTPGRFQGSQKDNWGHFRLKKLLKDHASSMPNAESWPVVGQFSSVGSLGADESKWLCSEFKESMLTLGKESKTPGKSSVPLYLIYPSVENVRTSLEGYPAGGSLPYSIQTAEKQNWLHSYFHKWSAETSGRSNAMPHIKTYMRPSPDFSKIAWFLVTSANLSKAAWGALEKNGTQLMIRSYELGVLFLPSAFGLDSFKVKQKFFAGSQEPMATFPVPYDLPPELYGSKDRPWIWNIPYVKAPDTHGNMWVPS

SMILES: CC(=O)C1=C(O)C=C2Oc3c(-c4csc(N/N=C/c5ccc(Br)cc5)n4)c(O)c(C)c(O)c3C2(C)C1=O (stereo not drawn) [Compound I, 2-acetyl-6-(2-(2-(4-bromobenzylidene)hydrazinyl)thiazole-4-yl)-3,7,9-trihydroxy-8,9b-dimethyldibenzo[b,d] furan-1(9bh)-one]
- maximal tolerated dose (outbred male CD-1 mice): no less than 5000 mg/kg
- LD50 [1]: > 5000 mg/kg
- IC50 [2]: 26 ± 11 nM
